# Source: patent publication US20170014417A1, “PHARMACEUTICAL ADMINISTRATION SYSTEM FOR THE TRANSDERMAL APPLICATION OF VARDENAFIL” (LIPP LIFE SCIENCES LLC, priority 2015, published 2017)
# Read-outs that look alike come from different tables or passages of the source.
# Legend:
# [1] = cited from earlier work
# [2] = cited from earlier work; remark: listed apart in the source
# [3] = in vitro-permeation test through Heat Separated Human Epidermis (HSHE), Hanson Vertical Diffusion Cells; format: in vitro ADME; settings: Formulation 3
# Experimental: In a 10 mL flask with a stopper, 100 mg of vardenafil (base; from LGM Pharma) and 400 mg of isopropylmyristate were mixed with 9.5 g of 2-propanol/water (70% v/v) and shaken for 10 minutes at ambient temperature to obtain the formulation below. The resulting crystal free formulation was subjected to an in vitro-permeation test through Heat Separated Human Epidermis (HSHE), which is highly predictive for in vivo-transdermal flux rates.
# Permeation experiments were conducted in duplicate (using 2 cells) following a Standard Operating Procedure for using Hanson Vertical Diffusion Cells (7 mL) mounted with Heat Separated Human Epidermis, an in vitro-experiment with high predictability for transdermal in vivo-fluxes. […]
# 200 mg of the formulation were applied on each Heat Separated Human Epidermis. […] Samples were withdrawn at predetermined time intervals (see Tables 1 and 2 below) and subjected to HPLC quantification of vardenafil (V).
# Permeation experiments were conducted following a Standard Operating Procedure for using Hanson Vertical Diffusion Cells (7 mL) mounted with Heat Separated Human Epidermis, an in vitro-experiment with high predictability for transdermal in vivo-fluxes. […] Samples were withdrawn at predetermined time intervals (see Table 3 below) and subjected to HPLC quantification of vardenafil (V). […]
# [4] = Calculation of required transdermal flux rates for the once daily treatment of erectile dysfunction (ED); settings: human
compound,measurement,setting,value
CCCc1nn(C)c2c(=O)[nH]c(-c3cc(S(=O)(=O)N4CCN(C)CC4)ccc3OCC)nc12 [sildenafil],log P,[1]; Table 12,1.9
CN1CC(=O)N2[C@H](c3ccc4c(c3)OCO4)c3[nH]c4ccccc4c3C[C@@H]2C1=O [tadalafil],log P,[1]; Table 12,1.7
C[C@]12CC[C@H]3[C@@H](CCC4=CC(=O)CC[C@@]43C)[C@@H]1CC[C@@H]2O [testosterone],log P,[1],3.4
CCCc1nc(C)c2c(=O)[nH]c(-c3cc(S(=O)(=O)N4CCN(CC)CC4)ccc3OCC)nn12 [vardenafil],log P,[1]; Table 12,1.4
same,log P,[1],1.4
same,plasma half-life,[2]; after oral administration,approximately 3 h
same,median time to reach maximum concentration in plasma,"[2]; oral administration, fasted state (Staxyn prescribing information)",1.5 h
same,absolute bioavailability,[2]; upon oral dosing in man,approximately 15%
same,transdermal flux rate achieved (formulation),[3],27 μg/cm^2 μg/cm^2 over 24 h
same,systemically available required dose for once daily treatment of ED (calculated),[4],0.75 mg
same,calculated transdermal flux rates required to deliver systemic doses for treatment of ED upon application on 200 cm^2,[4]; 24 h,3.8 μg/cm^2 μg/cm^2 over 24 h
